Results: patent US10844077B2, “Thiazolyl-containing compounds for treating proliferative diseases” (Dana-Farber Cancer Institute, Inc., priority 2014, dated 2020)

Experiments:
Format in all cases: binding
[1] = target: broad panel of kinases (Homo sapiens, UniProt O00238); settings: BMPR1B; 1 μM
[2] = target: broad panel of kinases (Homo sapiens, UniProt O15264); settings: p38-delta; 1 μM
[3] = target: broad panel of kinases (Homo sapiens, UniProt O75116); settings: ROCK2; 1 μM
[4] = target: broad panel of kinases (Homo sapiens, UniProt O94921); settings: PFTK1; 1 μM
[5] = target: broad panel of kinases (Homo sapiens, UniProt P00519, E255K); settings: ABL1(E255K)-phosphorylated; 1 μM
[6] = target: broad panel of kinases (Homo sapiens, UniProt P00533, L861Q); settings: EGFR(L861Q); 1 μM
[7] = target: broad panel of kinases (Homo sapiens, UniProt P0C1S8); settings: WEE2; 1 μM
[8] = target: broad panel of kinases (Homo sapiens, UniProt P10721, A829P); settings: KIT(A829P); 1 μM
[9] = target: broad panel of kinases (Homo sapiens, UniProt P12931); settings: SRC; 1 μM
[10] = target: broad panel of kinases (Homo sapiens, UniProt P22607, G697C); settings: FGFR3(G697C); 1 μM
[11] = target: broad panel of kinases (Homo sapiens, UniProt P27448); settings: MARK3; 1 μM
[12] = target: broad panel of kinases (Homo sapiens, UniProt P29376); settings: LTK; 1 μM
[13] = target: broad panel of kinases (Homo sapiens, UniProt P35590); settings: TIE1; 1 μM
[14] = target: broad panel of kinases (Homo sapiens, UniProt P41743); settings: PRKCI; 1 μM
[15] = target: broad panel of kinases (Homo sapiens, UniProt P42336, C420R); settings: PIK3CA(C420R); 1 μM
[16] = target: broad panel of kinases (Homo sapiens, UniProt P42680); settings: TEC; 1 μM
[17] = target: broad panel of kinases (Homo sapiens, UniProt P49674); settings: CSNK1E; 1 μM
[18] = target: broad panel of kinases (Homo sapiens, UniProt P51451); settings: BLK; 1 μM
[19] = target: broad panel of kinases (Homo sapiens, UniProt P53671); settings: LIMK2; 1 μM
[20] = target: broad panel of kinases (Homo sapiens, UniProt P78362); settings: SRPK2; 1 μM
[21] = target: broad panel of kinases (Homo sapiens, UniProt Q13523); settings: PRP4; 1 μM
[22] = target: broad panel of kinases (Homo sapiens, UniProt Q13546); settings: RIPK1; 1 μM
[23] = target: broad panel of kinases (Homo sapiens, UniProt Q13555); settings: CAMK2G; 1 μM
[24] = target: broad panel of kinases (Homo sapiens, UniProt Q13882); settings: BRK; 1 μM
[25] = target: broad panel of kinases (Homo sapiens, UniProt Q13976); settings: PRKG1; 1 μM
[26] = target: broad panel of kinases (Homo sapiens, UniProt Q8IWQ3); settings: BRSK2; 1 μM
[27] = target: broad panel of kinases (Homo sapiens, UniProt Q8TDC3); settings: BRSK1; 1 μM
[28] = target: broad panel of kinases (Homo sapiens, UniProt Q8TF76); settings: HASPIN; 1 μM
[29] = target: broad panel of kinases (Homo sapiens, UniProt Q99759); settings: MAP3K3; 1 μM
[30] = target: broad panel of kinases (Homo sapiens, UniProt Q9BUB5); settings: MKNK1; 1 μM
[31] = target: broad panel of kinases (Homo sapiens, UniProt Q9H2G2); settings: SLK; 1 μM
[32] = target: broad panel of kinases (Homo sapiens, UniProt Q9HC98); settings: NEK6; 1 μM
[33] = target: broad panel of kinases (Homo sapiens, UniProt Q9P1W9); settings: PIM2; 1 μM
[34] = target: broad panel of kinases (Homo sapiens, UniProt Q9UIK4); settings: DAPK2; 1 μM
[35] = target: broad panel of kinases (Homo sapiens, UniProt Q9UPZ9); settings: ICK; 1 μM
[36] = target: broad panel of kinases (Homo sapiens, UniProt Q9Y243); settings: AKT3; 1 μM
[37] = target: broad panel of kinases (Homo sapiens, UniProt Q9Y6M4); settings: CSNK1G3; 1 μM

broad panel of kinases (Homo sapiens, UniProt Q9Y243), sequence (Q9Y243 2-479 limits assumed): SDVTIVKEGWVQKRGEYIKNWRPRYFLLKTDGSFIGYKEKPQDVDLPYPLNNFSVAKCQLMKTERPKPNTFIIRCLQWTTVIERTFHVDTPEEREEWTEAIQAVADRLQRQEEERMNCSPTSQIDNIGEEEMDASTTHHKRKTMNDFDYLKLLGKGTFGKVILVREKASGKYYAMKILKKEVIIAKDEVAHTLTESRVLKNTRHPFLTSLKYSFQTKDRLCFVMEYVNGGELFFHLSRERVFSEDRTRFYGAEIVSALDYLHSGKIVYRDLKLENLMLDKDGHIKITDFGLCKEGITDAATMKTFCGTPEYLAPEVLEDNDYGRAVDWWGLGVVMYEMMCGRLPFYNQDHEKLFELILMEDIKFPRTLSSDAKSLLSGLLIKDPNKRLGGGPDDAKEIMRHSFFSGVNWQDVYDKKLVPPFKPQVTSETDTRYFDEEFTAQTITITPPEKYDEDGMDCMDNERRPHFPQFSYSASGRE
broad panel of kinases (Homo sapiens, UniProt P00533, L861Q), sequence (P00533 25-1210 L861Q limits assumed): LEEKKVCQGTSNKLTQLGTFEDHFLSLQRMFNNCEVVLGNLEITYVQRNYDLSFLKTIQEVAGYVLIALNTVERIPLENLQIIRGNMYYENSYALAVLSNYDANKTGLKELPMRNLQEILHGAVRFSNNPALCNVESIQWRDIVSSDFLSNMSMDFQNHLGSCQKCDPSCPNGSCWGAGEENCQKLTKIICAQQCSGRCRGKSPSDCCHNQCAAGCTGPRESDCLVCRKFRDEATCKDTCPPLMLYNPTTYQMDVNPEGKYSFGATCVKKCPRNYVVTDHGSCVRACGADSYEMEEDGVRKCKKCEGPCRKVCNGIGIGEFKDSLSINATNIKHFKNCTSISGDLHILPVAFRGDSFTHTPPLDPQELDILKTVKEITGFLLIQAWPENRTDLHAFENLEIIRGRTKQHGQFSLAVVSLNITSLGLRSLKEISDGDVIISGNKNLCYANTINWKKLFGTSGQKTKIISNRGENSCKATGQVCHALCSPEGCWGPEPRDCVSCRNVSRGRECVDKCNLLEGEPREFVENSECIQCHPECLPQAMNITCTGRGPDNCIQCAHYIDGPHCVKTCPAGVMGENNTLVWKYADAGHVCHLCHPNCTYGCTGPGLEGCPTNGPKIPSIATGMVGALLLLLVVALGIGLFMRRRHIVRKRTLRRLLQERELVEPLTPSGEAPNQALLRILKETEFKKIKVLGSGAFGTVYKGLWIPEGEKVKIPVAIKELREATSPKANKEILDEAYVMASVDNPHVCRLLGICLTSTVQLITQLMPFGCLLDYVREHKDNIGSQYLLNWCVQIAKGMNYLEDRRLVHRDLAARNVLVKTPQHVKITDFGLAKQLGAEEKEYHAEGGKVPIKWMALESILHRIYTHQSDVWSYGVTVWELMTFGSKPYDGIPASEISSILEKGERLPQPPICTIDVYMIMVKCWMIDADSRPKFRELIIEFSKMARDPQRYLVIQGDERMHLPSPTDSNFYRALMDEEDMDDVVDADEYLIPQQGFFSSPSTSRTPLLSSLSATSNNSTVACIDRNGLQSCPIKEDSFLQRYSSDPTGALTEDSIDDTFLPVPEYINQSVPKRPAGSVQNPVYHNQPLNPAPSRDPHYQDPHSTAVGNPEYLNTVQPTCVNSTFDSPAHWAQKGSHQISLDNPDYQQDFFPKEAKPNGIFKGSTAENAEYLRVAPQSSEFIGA
broad panel of kinases (Homo sapiens, UniProt P41743), sequence (P41743 2-596 limits assumed): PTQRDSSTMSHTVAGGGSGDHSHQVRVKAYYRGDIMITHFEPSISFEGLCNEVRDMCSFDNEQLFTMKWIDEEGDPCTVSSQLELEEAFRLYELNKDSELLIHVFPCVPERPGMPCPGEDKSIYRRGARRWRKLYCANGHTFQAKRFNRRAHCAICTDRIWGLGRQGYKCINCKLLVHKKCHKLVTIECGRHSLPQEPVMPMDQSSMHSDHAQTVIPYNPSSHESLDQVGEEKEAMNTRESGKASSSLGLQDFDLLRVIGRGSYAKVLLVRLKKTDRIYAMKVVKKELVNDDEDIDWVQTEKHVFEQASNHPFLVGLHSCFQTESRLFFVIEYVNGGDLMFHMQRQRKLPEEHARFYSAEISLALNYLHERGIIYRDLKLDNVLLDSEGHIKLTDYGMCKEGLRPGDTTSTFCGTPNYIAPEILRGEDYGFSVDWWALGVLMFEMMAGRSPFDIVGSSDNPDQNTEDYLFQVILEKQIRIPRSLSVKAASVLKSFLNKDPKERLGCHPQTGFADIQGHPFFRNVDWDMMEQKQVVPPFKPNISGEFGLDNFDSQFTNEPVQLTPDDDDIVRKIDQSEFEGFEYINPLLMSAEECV
broad panel of kinases (Homo sapiens, UniProt P51451), sequence (P51451 2-505 limits assumed): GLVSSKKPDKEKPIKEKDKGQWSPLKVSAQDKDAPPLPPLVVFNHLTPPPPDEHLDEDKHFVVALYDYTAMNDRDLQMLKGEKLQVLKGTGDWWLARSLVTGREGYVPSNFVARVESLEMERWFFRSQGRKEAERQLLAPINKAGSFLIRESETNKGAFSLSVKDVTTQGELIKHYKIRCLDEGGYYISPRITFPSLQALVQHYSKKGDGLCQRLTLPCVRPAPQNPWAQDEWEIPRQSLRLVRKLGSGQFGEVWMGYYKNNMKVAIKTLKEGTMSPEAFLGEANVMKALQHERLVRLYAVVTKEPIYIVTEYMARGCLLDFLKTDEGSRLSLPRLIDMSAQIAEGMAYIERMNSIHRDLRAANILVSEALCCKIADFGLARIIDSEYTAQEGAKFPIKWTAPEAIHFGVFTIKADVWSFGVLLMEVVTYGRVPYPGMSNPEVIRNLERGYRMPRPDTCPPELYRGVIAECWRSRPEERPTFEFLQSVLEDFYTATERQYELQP
broad panel of kinases (Homo sapiens, UniProt Q13523), sequence (Q13523 2-1007 limits assumed): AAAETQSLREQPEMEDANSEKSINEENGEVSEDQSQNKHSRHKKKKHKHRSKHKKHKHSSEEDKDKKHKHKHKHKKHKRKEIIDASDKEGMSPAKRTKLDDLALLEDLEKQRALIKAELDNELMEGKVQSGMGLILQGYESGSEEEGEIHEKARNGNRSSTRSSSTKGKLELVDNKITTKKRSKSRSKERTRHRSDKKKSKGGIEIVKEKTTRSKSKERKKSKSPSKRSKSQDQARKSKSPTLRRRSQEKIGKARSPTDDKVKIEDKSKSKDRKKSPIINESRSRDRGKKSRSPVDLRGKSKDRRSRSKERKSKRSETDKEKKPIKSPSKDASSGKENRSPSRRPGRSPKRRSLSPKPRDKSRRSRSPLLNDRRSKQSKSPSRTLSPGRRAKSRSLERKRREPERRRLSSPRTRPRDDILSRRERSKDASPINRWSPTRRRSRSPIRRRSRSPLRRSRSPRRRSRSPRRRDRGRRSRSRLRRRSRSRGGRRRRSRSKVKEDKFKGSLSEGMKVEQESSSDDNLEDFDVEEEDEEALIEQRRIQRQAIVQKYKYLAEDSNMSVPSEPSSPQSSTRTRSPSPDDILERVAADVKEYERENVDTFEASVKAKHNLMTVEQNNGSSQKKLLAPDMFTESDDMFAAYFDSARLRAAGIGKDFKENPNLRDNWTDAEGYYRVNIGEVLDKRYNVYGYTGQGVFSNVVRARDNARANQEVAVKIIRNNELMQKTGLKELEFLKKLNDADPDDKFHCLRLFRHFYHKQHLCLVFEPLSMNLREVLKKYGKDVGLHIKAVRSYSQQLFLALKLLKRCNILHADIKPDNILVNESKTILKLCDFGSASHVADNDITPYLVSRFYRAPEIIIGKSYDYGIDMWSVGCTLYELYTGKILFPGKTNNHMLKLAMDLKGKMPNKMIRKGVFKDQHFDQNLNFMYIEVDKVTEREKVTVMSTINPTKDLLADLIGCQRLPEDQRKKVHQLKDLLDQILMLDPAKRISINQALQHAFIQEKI
broad panel of kinases (Homo sapiens, UniProt P22607, G697C), sequence (P22607 23-806 G697C limits assumed): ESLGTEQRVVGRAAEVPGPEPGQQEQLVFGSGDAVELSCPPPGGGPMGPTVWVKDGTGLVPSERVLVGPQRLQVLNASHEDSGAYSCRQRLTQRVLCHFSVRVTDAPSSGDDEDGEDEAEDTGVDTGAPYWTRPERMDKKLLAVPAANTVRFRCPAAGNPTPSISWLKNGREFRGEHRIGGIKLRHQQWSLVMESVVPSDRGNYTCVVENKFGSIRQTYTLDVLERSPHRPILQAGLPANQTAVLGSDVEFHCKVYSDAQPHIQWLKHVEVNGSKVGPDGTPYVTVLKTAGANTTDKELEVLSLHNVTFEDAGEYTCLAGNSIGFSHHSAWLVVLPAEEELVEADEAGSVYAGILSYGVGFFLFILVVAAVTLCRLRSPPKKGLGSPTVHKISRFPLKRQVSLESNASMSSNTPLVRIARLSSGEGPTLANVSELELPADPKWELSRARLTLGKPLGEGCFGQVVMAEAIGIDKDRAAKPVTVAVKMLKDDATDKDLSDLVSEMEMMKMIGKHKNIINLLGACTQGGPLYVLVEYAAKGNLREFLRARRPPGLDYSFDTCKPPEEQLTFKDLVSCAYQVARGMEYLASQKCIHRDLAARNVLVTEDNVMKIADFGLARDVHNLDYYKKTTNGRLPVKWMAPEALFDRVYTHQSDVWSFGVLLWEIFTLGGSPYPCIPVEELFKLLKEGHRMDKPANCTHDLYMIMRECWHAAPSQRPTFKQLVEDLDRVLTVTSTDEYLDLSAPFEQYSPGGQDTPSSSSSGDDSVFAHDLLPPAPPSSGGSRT
broad panel of kinases (Homo sapiens, UniProt O00238), sequence (O00238 14-502 limits assumed): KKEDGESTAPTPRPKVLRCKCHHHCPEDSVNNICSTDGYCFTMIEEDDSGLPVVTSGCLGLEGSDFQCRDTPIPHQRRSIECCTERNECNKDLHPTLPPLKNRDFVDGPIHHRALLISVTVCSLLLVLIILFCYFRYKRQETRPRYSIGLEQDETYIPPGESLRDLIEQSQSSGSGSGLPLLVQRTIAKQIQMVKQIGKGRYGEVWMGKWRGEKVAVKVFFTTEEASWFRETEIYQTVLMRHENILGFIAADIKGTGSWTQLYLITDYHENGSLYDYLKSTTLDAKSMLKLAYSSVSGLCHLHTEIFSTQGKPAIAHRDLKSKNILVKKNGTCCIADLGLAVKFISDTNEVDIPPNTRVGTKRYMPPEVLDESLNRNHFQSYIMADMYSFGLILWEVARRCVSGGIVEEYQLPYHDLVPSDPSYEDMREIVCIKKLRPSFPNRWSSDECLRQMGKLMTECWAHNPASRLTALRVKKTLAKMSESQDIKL

SMILES	percent of control binding remaining (lower = stronger binding) [1] [%]	percent of control binding remaining (lower = stronger binding) [2] [%]	percent of control binding remaining (lower = stronger binding) [3] [%]	percent of control binding remaining (lower = stronger binding) [4] [%]	percent of control binding remaining (lower = stronger binding) [6] [%]	percent of control binding remaining (lower = stronger binding) [7] [%]	percent of control binding remaining (lower = stronger binding) [8] [%]	percent of control binding remaining (lower = stronger binding) [9] [%]	percent of control binding remaining (lower = stronger binding) [11] [%]	percent of control binding remaining (lower = stronger binding) [12] [%]	percent of control binding remaining (lower = stronger binding) [13] [%]	percent of control binding remaining (lower = stronger binding) [14] [%]	percent of control binding remaining (lower = stronger binding) [15] [%]	percent of control binding remaining (lower = stronger binding) [16] [%]	percent of control binding remaining (lower = stronger binding) [17] [%]	percent of control binding remaining (lower = stronger binding) [18] [%]	percent of control binding remaining (lower = stronger binding) [19] [%]	percent of control binding remaining (lower = stronger binding) [20] [%]	percent of control binding remaining (lower = stronger binding) [21] [%]	percent of control binding remaining (lower = stronger binding) [22] [%]	also measured
C=CC(=O)N1CC[C@H](Nc2nc(CN3CCOCC3)cc(Nc3ncc(C(=O)Nc4c(C)cccc4C)s3)n2)C1 [Example I-2]	10	100	95	72	1.3	100	5.8	0	94	100	100	94	100	3.6	84	0	51	92	95	100	percent of control binding remaining (lower = stronger binding) [5]: 0.45%; percent of control binding remaining (lower = stronger binding) [10]: 100%; percent of control binding remaining (lower = stronger binding) [23]: 91%; percent of control binding remaining (lower = stronger binding) [24]: 1.6%; percent of control binding remaining (lower = stronger binding) [25]: 100%; percent of control binding remaining (lower = stronger binding) [26]: 100%; percent of control binding remaining (lower = stronger binding) [27]: 100%; percent of control binding remaining (lower = stronger binding) [28]: 100%; percent of control binding remaining (lower = stronger binding) [29]: 79%; percent of control binding remaining (lower = stronger binding) [30]: 100%; percent of control binding remaining (lower = stronger binding) [31]: 96%; percent of control binding remaining (lower = stronger binding) [32]: 100%; percent of control binding remaining (lower = stronger binding) [33]: 84%; percent of control binding remaining (lower = stronger binding) [34]: 86%; percent of control binding remaining (lower = stronger binding) [35]: 86%; percent of control binding remaining (lower = stronger binding) [36]: 90%; percent of control binding remaining (lower = stronger binding) [37]: 96%
C=CC(=O)N1CC[C@H](Nc2nccc(Nc3ncc(C(=O)Nc4c(C)cccc4C)s3)n2)C1 [Example I-3]	45	100	75	99	0.8	97	10	0	57	100	100	90	99	3.3	96	0	65	64	100	100	% change compared to control [5]: 0.5%; % change compared to control [10]: 99%; percent of control binding remaining (lower = stronger binding) [23]: 97%; percent of control binding remaining (lower = stronger binding) [24]: 9.3%; percent of control binding remaining (lower = stronger binding) [25]: 100%; percent of control binding remaining (lower = stronger binding) [26]: 95%; percent of control binding remaining (lower = stronger binding) [27]: 100%; percent of control binding remaining (lower = stronger binding) [28]: 88%; percent of control binding remaining (lower = stronger binding) [29]: 94%; percent of control binding remaining (lower = stronger binding) [30]: 100%; percent of control binding remaining (lower = stronger binding) [31]: 94%; percent of control binding remaining (lower = stronger binding) [32]: 64%; percent of control binding remaining (lower = stronger binding) [33]: 72%; percent of control binding remaining (lower = stronger binding) [34]: 80%; percent of control binding remaining (lower = stronger binding) [35]: 87%; percent of control binding remaining (lower = stronger binding) [36]: 81%; percent of control binding remaining (lower = stronger binding) [37]: 95%
